Data published in US12473305B2, “Pyrazole boronic acid compound, pharmaceutical composition containing same, and uses thereof” (BEIJING SONGRUN PHARMACEUTICAL TECHNOLOGY CO., LTD., priority 2020, dated 2025).

What was measured:
[1] = biological target: T1, 20S proteasome β5 subunit (Homo sapiens, UniProt P20618+P28074); test: Proteasome-Glo Cell-Based assay in K562 cells, β5 subunit; conditions: 2 h incubation
T1 construct: endogenous in cells; host or cells: K562
Experimental: Proteasome-Glo™ Cell-Based assay kit (Promega, USA) was used to determine the activity of the target compound against the 20S proteasome. Human chronic myeloid leukemia cell line (K562, 6000 cells/well) was inoculated into the 384 well plate in 20 μL/well. The cells were then equilibrated at 37° C., 5% CO2 for 2 hours. Each 384 well plate was set with the mock group and treatment group, and each well of the treatment group was added with 5 μL of the compound solution with the final concentration of 40 μM, 13.3 μM, 4.44 μM, 1.48 μM, 0.49 μM, 0.16 μM, 0.055 μM, 0.0183 μM, […], 0.0061 μM. The cells was incubated with the drugs for 2 hours at 37° C., 5% CO2 before adding 25 μL of corresponding Proteasome-Glo™ Cell-Based reagent per well. The relative luminescence unit (RLU) was measured by using Multimode Microplate Reader Varioskan Flash (Thermo Scientific, USA) after 15 min and compared with the RLU of the control group. SigmaPlot 10.0 software was used to calculate IC50 value.

[2] = system: human multiple myeloma RPMI 8226; test: Pharmacodynamic study, RPMI 8226 subcutaneous xenograft; format: in vivo, female NOD/SCID mice; conditions: BIW, tail vein, day of the last administration; for Tumor volume (x ± S): in mm³ (unit assumed)
Experimental: The anti-tumor effect in vivo was studied by using the tumor animal model obtained by subcutaneous xenotransplantation of cell lines into female NOD/SCID mice (purchased from Sipeifu Biotechnology Co., Ltd.).
RPMI 8226 cells were subcutaneously inoculated into NOD/SCID mice, and human multiple myeloma subcutaneously transplanted tumor model was successfully established 9 days after inoculating the cells. The test was divided into vehicle (0.3 mL DMSO, 0.27 mL Tween-80, 2.43 mL normal saline) control group, compound 30 low-dose group (20 mg/kg), compound 30 medium-dose group (30 mg/kg), compound 30 high-dose group (40 mg/kg), compound 39 low-dose group (5 mg/kg), compound 39 medium-dose group (10 mg/kg), and compound 39 high-dose group (15 mg/kg), and bortezomib (API purchased from Yangtze River Pharmaceutical) was used as the positive control group (0.5 mg/kg); 5 tumor-bearing mice established above in each group were administered by tail vein twice a week for nine times in total. The long diameter a (mm) of the tumor and the short diameter b (mm) of the tumor perpendicular to the long diameter were measured with digital electronic caliper twice a week. The calculation formula of tumor volume was: TV=ab^2/2; and the calculation formula of relative tumor volume was: RTV=Vt/Vo, Vo was the tumor volume measured when the mice in each group were divided into cages and administered for the first time (d1), and Vt was the tumor volume measured at the last administration. The animals were sacrificed 31 days (d22) after inoculation of RPMI 8226 cells, and weighed. The tumor mass was dissected and weighed, and the tumor inhibition rate was calculated according to the following formula: […]

[3] = system: colorectal cancer cell line HCT116; test: CellTiter-Glo tumor cell proliferation, HCT116; format: cell-based, human; conditions: Homo sapiens, HCT-116; CellTiter-Glo, 72 h
Procedure, shortened: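 Cells seeded at 2×10^4/mL, grown 24 h at 37° C, 5% CO2, then treated in triplicate with medium-diluted compound for 72 h. CellTiter-Glo luminescence read after 20 min at 37° C; inhibition versus untreated control RLU, IC50 calculated.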

[4] = system: human liver cancer Bel7404; test: Antitumor activity in vivo, Bel7404 transplanted in nude mice; set-up: species or system male BALB/c athymic nude mice; conditions: for RTV (d22): iv × 5; for Animal weight (g) (After tumor removal) / Inhibition rate %: iv × 5, d22
Experimental: In the test, the Bel7404 models of human liver cancer transplanted into 6-week-old male BALB/c athymic nude mice (purchased from Shanghai Slac Laboratory Animal Co., Ltd.) with body weight of 18-20 g were used to study the anti-tumor effect of compound 30. The dose of compound 30 was 50 mg/kg (30H group), 25 mg/kg (30 M group) and 12.5 mg/kg (30 L group), respectively, and was injected intravenously twice a week for 5 times in total; at the same time, 5-FU was used as the control drug, which was injected intraperitoneally twice a week for 7 times in total (5 mice/group for the compound 30 administration group, 5 mice in 5 FU administration group; 8 mice were used as the mock group). The long diameter a (mm) and the vertical short diameter b (mm) of the tumor were measured twice a week with a digital electronic caliper. The tumor volume calculation formula was TV=ab^2/2; and the relative tumor volume calculation formula was RTV=Vt/Vo, wherein Vo was the tumor volume measured on the first day of administration (d1), and Vt was the tumor volume at each measurement. On the 22nd day of administration (d22), the animals were sacrificed and weighed. The tumor mass was dissected and weighed. The tumor inhibition rate (tumor inhibitory rate, %) was calculated according to the following formula: […]

CC(C)C[C@H](NC(=O)Cn1nc(-c2cccc(OCCN3CCN(c4ccccc4)CC3)c2)cc1-c1ccccc1)B(O)O.Cl [Compound 39, (R)-(3-methyl-1-(2-(5-phenyl-3-(3-(2-(4-phenylpiperazin-1-yl)ethoxy)phenyl)-1H-pyrazol-1-yl)acetamido)butyl)boronic acid hydrochloride]
IC50 [1]: 200 nM | Relative tumor volume (x ± S) ([2]; 5 mg/kg): 1.51 ± 0.38 | T/C (%) ([2]; 5 mg/kg): 16.18% | TGI (%) ([2]; 5 mg/kg): 83.82% | Tumor volume (x ± S) ([2]; 5 mg/kg): 177.55 ± 51.28 | Relative tumor volume (x ± S) ([2]; 10 mg/kg): 0.62 ± 0.28 | T/C (%) ([2]; 10 mg/kg): 6.65% | TGI (%) ([2]; 10 mg/kg): 93.35% | Tumor volume (x ± S) ([2]; 10 mg/kg): 75.06 ± 19.64 | Relative tumor volume (x ± S) ([2]; 15 mg/kg): 0.36 ± 0.02 | T/C (%) ([2]; 15 mg/kg): 3.86% | TGI (%) ([2]; 15 mg/kg): 96.14% | Tumor volume (x ± S) ([2]; 15 mg/kg): 21.79 ± 3.50 | IC50 [3]: 84 nM

CC(C)C[C@H](NC(=O)Cn1nc(-c2cccc(OCCN3CCOCC3)c2)cc1-c1ccccc1)B(O)O.Cl [Compound 30, (R)-(3-methyl-1-(2-(3-(3-(2-morpholinoethoxy)phenyl)-5-phenyl-1H-pyrazol-1-yl)-acetamido)butyl)boronic acid hydrochloride]
IC50 [1]: 400 nM | Relative tumor volume (x ± S) ([2]; 20 mg/kg): 2.57 ± 0.61 | T/C (%) ([2]; 20 mg/kg): 27.55% | TGI (%) ([2]; 20 mg/kg): 72.45% | Tumor volume (x ± S) ([2]; 20 mg/kg): 267.27 ± 77.46 | Relative tumor volume (x ± S) ([2]; 30 mg/kg): 1.63 ± 0.32 | T/C (%) ([2]; 30 mg/kg): 17.47% | TGI (%) ([2]; 30 mg/kg): 82.53% | Tumor volume (x ± S) ([2]; 30 mg/kg): 147.56 ± 33.02 | Relative tumor volume (x ± S) ([2]; 40 mg/kg): 0.74 ± 0.12 | T/C (%) ([2]; 40 mg/kg): 7.93% | TGI (%) ([2]; 40 mg/kg): 92.07% | Tumor volume (x ± S) ([2]; 40 mg/kg): 72.06 ± 13.62 | RTV (d22) ([4]; 12.5 mg/kg): 4.52 ± 1.08 | Animal weight (g) (After tumor removal) ([4]; 12.5 mg/kg): 23.11 ± 0.65 g | Inhibition rate % ([4]; 12.5 mg/kg): 24.89% | RTV (d22) ([4]; 25 mg/kg): 3.82 ± 0.67 | Animal weight (g) (After tumor removal) ([4]; 25 mg/kg): 21.91 ± 0.56 g | Inhibition rate % ([4]; 25 mg/kg): 36.55% | RTV (d22) ([4]; 50 mg/kg): 2.33 ± 0.59 | Animal weight (g) (After tumor removal) ([4]; 50 mg/kg): 19.95 ± 0.45 g | Inhibition rate % ([4]; 50 mg/kg): 61.29% | IC50 [3]: 630 nM
